Results on 6 compounds are retold here after US20240270703A1, “HERBICIDAL COMPOUNDS” (SYNGENTA CROP PROTECTION AG, priority 2021, published 2024).

SMILES strings stand for the structures.

Holding throughout (format): in vivo
Experiment [1] deals with Abutilon theophrasti (ABUTH). Kind of experiment: Herbicidal glasshouse test, PRE application. Particulars: 130 g/ha; evaluated after 14 days; 100=total damage to plant, 0=no damage to plant. As for the experimental part:
(§1) Seeds of a variety of test species are sown in standard soil in pots (Lolium perenne (LOLPE), Amaranthus retroflexus (AMARE), Abutilon theophrasti (ABUTH), Setaria faberi (SETFA), Echinochloa crus-galli (ECHCG), Zea mays (ZEAMX)). After cultivation for one day under controlled conditions in a glasshouse (at 24/16° C., day/night; 14 hours light; 65% humidity), the plants were sprayed with an aqueous spray solution derived from the formulation of the technical active ingredient in 0.6 ml acetone and 45 ml formulation solution containing 10.6% Emulsogen EL (Registry number 61791-12-6), 42.2% N-methyl pyrrolidone, 42.2% dipropylene glycol monomethyl ether (CAS RN 34590-94-8) and 0.2% X-77 (CAS RN 11097-66-8).
(§2) The test plants were then grown in a glasshouse under controlled conditions in a glasshouse (at 24/16° C., day/night; 14 hours light; 65% humidity) and watered twice daily. After 14 days, the test was evaluated (100=total damage to plant; 0=no damage to plant, NC=data not captured). The compounds were applied at 130 g/ha unless otherwise stated.

The test system of experiment [2] is Setaria faberi (SETFA). Kind of experiment: Herbicidal glasshouse test, PRE application. Particulars: 130 g/ha; evaluated after 14 days; 100=total damage to plant, 0=no damage to plant. As for the experimental part: as §1, §2
Experiment [3] has as its system Echinochloa crus-galli (ECHCG). Kind of experiment: Herbicidal glasshouse test, PRE application. Particulars: 130 g/ha; evaluated after 14 days; 100=total damage to plant, 0=no damage to plant. As for the experimental part:
as §1, §2

The subject of experiment [4] is Amaranthus retroflexus (AMARE). Kind of experiment: Herbicidal glasshouse test, PRE application. Particulars: 130 g/ha; evaluated after 14 days; 100=total damage to plant, 0=no damage to plant. As for the experimental part:
as §1, §2

The test system of experiment [5] is Zea mays (ZEAMX). Kind of experiment: Herbicidal glasshouse test, PRE application (crop damage). Particulars: 130 g/ha; evaluated after 14 days; 100=total damage to plant, 0=no damage to plant; maize crop. As for the experimental part:
as §1, §2

In experiment [6] the test system is Setaria faberi (SETFA). In words: Herbicidal glasshouse test, POST application. Particulars: 130 g/ha; evaluated after 14 days; 100=total damage to plant, 0=no damage to plant.
Experiment [7] relates to Zea mays (ZEAMX). Kind of experiment: Herbicidal glasshouse test, POST application (crop damage). Particulars: 130 g/ha; evaluated after 14 days; 100=total damage to plant, 0=no damage to plant; maize crop.
The subject of experiment [8] is Amaranthus retroflexus (AMARE). In words: Herbicidal glasshouse test, POST application. The settings on record: 130 g/ha; evaluated after 14 days; 100=total damage to plant, 0=no damage to plant.
For experiment [9], the system named is Abutilon theophrasti (ABUTH). In words: Herbicidal glasshouse test, POST application. Particulars: 130 g/ha; evaluated after 14 days; 100=total damage to plant, 0=no damage to plant.
The test system of experiment [10] is Echinochloa crus-galli (ECHCG). In words: Herbicidal glasshouse test, POST application. The settings on record: 130 g/ha; evaluated after 14 days; 100=total damage to plant, 0=no damage to plant.

In the case of `CCNS(=O)(=O)c1c(OC(F)(F)F)ccc(C(=O)Nc2nnnn2C)c1Cl` [Compound 1.002, 2-chloro-3-(ethylsulfamoyl)-N-(1-methyltetrazol-5-yl)-4-(trifluoromethoxy)benzamide], the “damage to plant, ABUTH, PRE Application” value in experiment [1] worked out at 80. Moreover, in the experiment with Setaria faberi (SETFA) [2], the “damage to plant, SETFA, PRE Application” value is on record as 0. Besides, in experiment [3], the “damage to plant, ECHCG, PRE Application” value was found to be 10. Also, in [4], the “damage to plant, AMARE, PRE Application” value is given as 100. The “damage to plant, ZEAMX, PRE Application” value in the experiment with Zea mays (ZEAMX) [5] turned out to be 0. In addition, the “damage to plant, SETFA, POST Application” value with Setaria faberi (SETFA) [6] worked out at 70. In the experiment with Zea mays (ZEAMX) [7], the “damage to plant, ZEAMX, POST Application” value was 0. Also, the “damage to plant, AMARE, POST Application” value in experiment [8] is 100. Besides, the “damage to plant, ABUTH, POST Application” value in experiment [9] was found to be 90. Also, the “damage to plant, ECHCG, POST Application” value in experiment [10] is recorded as 90.
As to `CNS(=O)(=O)c1c(OC(F)(F)F)ccc(C(=O)Nc2nnnn2C)c1Cl` [Compound 1.004], the “damage to plant, ABUTH, PRE Application” value in [1] is 100. Further, the “damage to plant, SETFA, PRE Application” value with Setaria faberi (SETFA) [2] is on record as 90. In addition, the “damage to plant, ECHCG, PRE Application” value in experiment [3] was 90. Besides, in experiment [4], the “damage to plant, AMARE, PRE Application” value is 100. Moreover, the “damage to plant, ZEAMX, PRE Application” value with Zea mays (ZEAMX) [5] is given as 0. Besides, the “damage to plant, SETFA, POST Application” value in the experiment on Setaria faberi (SETFA) [6] is given as 80. Further, in the experiment on Zea mays (ZEAMX) [7], the “damage to plant, ZEAMX, POST Application” value is 10. In addition, in experiment [8], the “damage to plant, AMARE, POST Application” value is 80. Also, in experiment [9], the “damage to plant, ABUTH, POST Application” value is 80. The “damage to plant, ECHCG, POST Application” value in [10] is 80.
`CN(C)S(=O)(=O)c1c(OC(F)(F)F)ccc(C(=O)Nc2nnnn2C)c1Cl` [Compound 1.003]: the “damage to plant, ABUTH, PRE Application” value in experiment [1] is reported as 90. For the same compound, the “damage to plant, SETFA, PRE Application” value in the experiment on Setaria faberi (SETFA) [2] is reported as 0. Besides, the “damage to plant, ECHCG, PRE Application” value in [3] is on record as 70. For the same compound, the “damage to plant, AMARE, PRE Application” value in experiment [4] stood at 90. In addition, the “damage to plant, ZEAMX, PRE Application” value in the experiment with Zea mays (ZEAMX) [5] was 0. Also, in the experiment on Setaria faberi (SETFA) [6], the “damage to plant, SETFA, POST Application” value is 100. Moreover, the “damage to plant, ZEAMX, POST Application” value in the experiment on Zea mays (ZEAMX) [7] is listed as 0. For the same compound, the “damage to plant, AMARE, POST Application” value in experiment [8] turned out to be 100. In addition, the “damage to plant, ABUTH, POST Application” value in experiment [9] was found to be 100. Besides, the “damage to plant, ECHCG, POST Application” value in experiment [10] stood at 100.
As for `CN(C)S(=O)(=O)c1c(OC(F)F)ccc(C(=O)Nc2nnnn2C)c1Cl` [Compound 1.009], the “damage to plant, SETFA, PRE Application” value in the experiment on Setaria faberi (SETFA) [2] was found to be 100. Further, in experiment [3], the “damage to plant, ECHCG, PRE Application” value was determined as 100. Further, the “damage to plant, AMARE, PRE Application” value in [4] worked out at 100. The “damage to plant, ZEAMX, PRE Application” value in the experiment with Zea mays (ZEAMX) [5] is 10. In the experiment with Setaria faberi (SETFA) [6], the “damage to plant, SETFA, POST Application” value stood at 90. In addition, the “damage to plant, ZEAMX, POST Application” value in the experiment with Zea mays (ZEAMX) [7] was 10. For the same compound, the “damage to plant, AMARE, POST Application” value in [8] is recorded as 100. The “damage to plant, ECHCG, POST Application” value in [10] is 90.
For `CCN(C)S(=O)(=O)c1c(OC(F)F)ccc(C(=O)Nc2nnnn2C)c1Cl` [Compound 1.010], the “damage to plant, SETFA, PRE Application” value in the experiment on Setaria faberi (SETFA) [2] was determined as 100. In experiment [3], the “damage to plant, ECHCG, PRE Application” value is listed as 100. For the same compound, in experiment [4], the “damage to plant, AMARE, PRE Application” value was 100. In the experiment on Zea mays (ZEAMX) [5], the “damage to plant, ZEAMX, PRE Application” value was found to be 10. Besides, in the experiment with Setaria faberi (SETFA) [6], the “damage to plant, SETFA, POST Application” value is recorded as 90. The “damage to plant, ZEAMX, POST Application” value in the experiment with Zea mays (ZEAMX) [7] was 10. In addition, the “damage to plant, AMARE, POST Application” value in experiment [8] was 100. The “damage to plant, ECHCG, POST Application” value in [10] is recorded as 100.
As to `Cn1nnnc1NC(=O)c1ccc(OC(F)(F)F)c(S(=O)(=O)NCC2CC2)c1Cl` [Compound 1.001], the “damage to plant, ABUTH, PRE Application” value in experiment [1] stood at 100. For the same compound, the “damage to plant, SETFA, PRE Application” value in the experiment on Setaria faberi (SETFA) [2] is given as 0. Besides, the “damage to plant, ECHCG, PRE Application” value in experiment [3] came out at 20. Moreover, the “damage to plant, AMARE, PRE Application” value in [4] was determined as 100. Also, the “damage to plant, ZEAMX, PRE Application” value in the experiment with Zea mays (ZEAMX) [5] worked out at 0. In addition, the “damage to plant, SETFA, POST Application” value in the experiment with Setaria faberi (SETFA) [6] came to 20. The “damage to plant, ZEAMX, POST Application” value in the experiment on Zea mays (ZEAMX) [7] was 0. Further, the “damage to plant, AMARE, POST Application” value in [8] is 100. The “damage to plant, ABUTH, POST Application” value in [9] is reported as 80. For the same compound, the “damage to plant, ECHCG, POST Application” value in experiment [10] was 60.
